According to patent US8003369B2, “Bacteriolytic agent” (priority 2005, dated 2011):

Tested on: Escherichia coli (E-coli) cell
Test: Bacteriolytic power (number of bacterial cells after 3 days vs blank)
Format: cell-based
Details: 50 μl of agent diluted to 50% as surfactant in 0.5 ml E. coli cell solution, 20° C.
Protocol: Into a 2 ml-screw tube were added 0.5 ml of a solution of an Escherichia coli (E-coli) cell and 50 μl of a bacteriolytic agent aqueous diluted solution which had been diluted so as to be a concentration of 50% as a surfactant with a micropipette, and the mixture was mixed well. The mixture was stored by allowing to stand at 20° C. for 3 days, which was used as a sample, and the number of bacterium cells was measured with a super deep profile measurement microscope (manufactured by KEYENCE CORPORATION, VK-8500). Bacteriolytic power was calculated by a following equation.
As a blank, 50 μl of ion-exchanged water was used in place of a bacteriolytic agent aqueous diluted solution. Bacteriolytic power (%)=[1−(the number of bacterial cells in sample after 3 days/the number of bacterial cells of blank)]×100 Determination Criteria: […]

| Compound | Bacteriolytic power (score) |
| --- | --- |
| cyclopentanetetracarboxylic acid salt of distearyldimethylammonium [Example 5] | 4 (60% ≦ Bacteriolytic power < 80%) |
| adipate salt of didecyldimethylammonium [Example 3] | 5 (Bacteriolytic power ≧ 80%) |
| CCCCCCCCCC[N+](C)(C)CCCCCCCCCC.[Cl-] [compound 3, didecyldimethylammonium chloride, reference compound] | 4 (60% ≦ Bacteriolytic power < 80%) |
| citric acid salt of didecyldimethylammonium [Example 2] | 5 (Bacteriolytic power ≧ 80%) |
| CC(=O)[O-].CCCCCCCCCC[N+](C)(C)CCCCCCCCCC [Example 4, acetate salt of didecyldimethylammonium] | 5 (Bacteriolytic power ≧ 80%) |
| cyclopentane tetracarboxylic acid salt of didecyldimethylammonium [Example 1] | 5 (Bacteriolytic power ≧ 80%) |

Tested on: not given
Test: not given
Details: 25° C.; cited from earlier work

| Compound | pKa (pKa1, first stage dissociation constant) |
| --- | --- |
| O=C(O)CCCC(=O)O [glutaric acid] | 4.3 |
| O=C(O)c1cc(C(=O)O)c(C(=O)O)cc1C(=O)O [pyromellitic acid] | 1.9 |
| CCCCCC(=O)O [caproic acid] | 4.9 |
| N[C@@H](CCC(=O)O)C(=O)O [glutamic acid] | 2.3 |
| O=C(O)CCCCCCCC(=O)O [azelaic acid] | 4.6 |
| O=C(O)[C@H](O)[C@@H](O)[C@H](O)[C@H](O)CO [gluconic acid] | 2.2 |
| COP(=O)(O)O [methylphosphoric acid] | 1.5 |
| CCOP(=O)(O)O [ethylphosphoric acid] | 1.6 |

Same assay, conditions: second stage dissociation; cited from earlier work

| Compound | pKa2 |
| --- | --- |
| O=C(O)CCCCC(=O)O [adipic acid] | 5.3 |
